Source: patent US20240366611A1, “METHODS OF TREATING A DISEASE OR DISORDER” (Ascentage Pharma (Suzhou) Co., Ltd., priority 2021, published 2024)

How the values were obtained:
[1] = tested on: DSS induced IBD in C57BL/6 mice; experiment: DSS induced inflammatory bowel disease (IBD) model; format: in vivo; conditions: 90 mg/kg po qd day 0 to day 7
Text: Female C57BL/6 mice (8 weeks old) were obtained from Beijing Vital River Laboratory Animal Co. Ltd. Animals were housed and handled in a temperature-controlled environment with a 12-h light/12-h dark cycle. A total of 30 mice were assigned to 3 groups by randomization based on body weight.
On Day 0, colitis was induced by administration of 3% DSS (dextran sodium sulfate, molecular weight 36,000-50,000) in drinking water ad libitum for 8 days. 8-week-old mice were divided into 3 groups: Group 2, DSS treatment group (vehicle, po, qd, from day 0 to day 7); Group 3, DSS with 90 mg/kg Cpd. 73 (po, qd, from day 0 to day 7); and the Group 1 (G1) Naive group, the mice were provided drinking water without DSS. The protocols and procedures involving the care and use of animals were approved by the Institutional Animal Care and Use Committee (IACUC) at Wuxi Apptec (Shanghai, China).
At the end of the study, the animals were euthanized, dissected and the entire colon was quickly removed and gently cleared of feces.
At the end of the study (day 8), all the animals were sacrificed by CO2. The colon was Swiss-rolled and fixed with neutralized PFA followed by H&E staining. After that, the pathologists from WuXi clinical pathological analysis platform, who were blinded to animal ID, reviewed the H&E staining and scored. […]

Hbb-bh1 mRNA = Hbb-bh1 mRNA level in whole blood (qPCR, relative to GAPDH); format: in vivo, CD-1 mice
Experimental: Female CD-1 mice (8 weeks old) were housed and handled in a temperature-controlled environment with a 12-h light/12-h dark cycle. A total of 25 mice were assigned to 5 groups by randomization based on body weight, followed by 5 days of treatment with vehicle (po, qd), 3 mg/kg Cpd. 73 (po, qd), 10 mg/kg Cpd. 73 (po, qd), 30 mg/kg Cpd. 73 (po, qd), or 90 mg/kg Cpd. 73 (po, qd). The protocols and procedures involving the care and use of animals were approved by the Institutional Animal Care and Use Committee (IACUC) of WuXiAppTec (Shanghai) Co., Ltd. (Shanghai, China).
Mouse Hbb-bh1 gene, the homolog to human HBG1 gene encoding γ hemoglobin, is used as an efficacy biomarker in wide-type CD-1 mice. One hundred and twenty μL whole blood was collected for RNA isolation following the instructions of Trizol LS reagent (Invitrogen, 10296028). The relative expression of Hbb-bh1 mRNA to GAPDH mRNA were quantified by qPCR. The relative expression of Hbb-bh1 mRNA in the whole blood of CD-1 mice increased with increasing dose of Cpd. 73 from 3 mg/kg (qd×5 days) to 90 mg/kg (qd×5 days). The Hbb-bh1 mRNA levels were 82.2%, 114.6% and 178.3% of the vehicle control group when Cpd. […] 73 (p<0.05, vs. vehicle). The increased expression of Hbb-bh1 mRNA may result in increased expression of mouse βh1 hemoglobin.

[2] = tested on: HBG mRNA in human CD34+ HSC; experiment: HBG mRNA level in human CD34+ HSC (qRT-PCR); format: cell-based; conditions: 7 days of treatment
Experimental: (§1) Human cord blood CD34+ hematopoietic stem cells (HSC) were first expanded in the expansion medium (StemSpan SFEM II+StemSpan CD34 Expansion Supplement) to achieve the desired number of cells, and then differentiated in differentiation medium (StemSpan SFEM II+StemSpan Erythroid Expansion Supplement (100×)) for three days without drug treatment. Various concentrations of Cpd. 73 were added on the fourth day of differentiation and further incubated with the cells for another 7 days. 33 mM Hydroxyurea was used as the control.
After 7 days of treatment, the cells were collected. Total RNA was isolated using Trizol LS reagent (Invitrogen-10296028) and 1 μg RNA of each sample was reverse transcribed into cDNA using High Capacity cDNA Reverse Transcription Kit (AB (Applied Biosystems)-4374966), according to the manufacturer's instructions. Quantitative RT-PCR (qRT-PCR) was performed using an Applied Biosystems QuantStudio 7 Flex system with the primer pairs shown as below: hHBG-mRNA-F1 (5′-[…]-3′) and hHBG-mRNA-R1 (5′-TCACTCAGCTGGGCAAAGG-3′). […] The HBG mRNA level were 1.09-, 2.49-, 7.84-, 9.69- and 12.2-folds of the vehicle group when the cells were treated with 0.01 μM, 0.03 μM, 0.1 μM, 0.3 μM and 1.0 μM Cpd. 73 respectively. […] 73 which increased HBG mRNA by 12.2 folds (p<0.0001, vs. vehicle). The HBG mRNA level of cells treated with 33 mM Hydroxyurea, an approved medicine for SCD, was 6.46-folds of the vehicle group.

HbF in human CD34+ HSC = experiment: HbF concentration in human CD34+ HSC by ELISA; format: cell-based; conditions: 7 days of treatment
Experimental: as §1
After 7 days of treatment, the cells were collected and lysed. The concentration of HbF in the cell lysate was determined using a Human Fetal Hemoglobin (HBF) ELISA Kit (MyBioSource, MBS2024474). […] The cellular HbF concentration were 1.27-, 1.39-, 1.52-, 1.58- and 1.69-folds of the vehicle group when the cells were treated with 0.01 μM, 0.03 μM, 0.1 μM, 0.3 μM and 1.0 μM Cpd. 73 respectively. […] 73 where the cellular HbF concentration was 1.69-folds of the vehicle group (p<0.01). HbF concentration of cells treated with 33 mM Hydroxyurea was 1.18-folds of the vehicle group. Clinically, small increases of HbF concentration (1-5%) have the potential to provide clinical benefits to all SCD patients.

## CC(C)N1Cc2cc(C(F)(F)F)ncc2-c2cnc(NCc3c(F)ccc4c3CCO4)n3cnc(c23)C1=O [Cpd. 73, 12-(((5-fluoro-2,3-dihydrobenzofuran-4-yl)methyl)amino)-4-isopropyl-7-(trifluoromethyl)-4,5-dihydro-3H-2,4,8,11,12a-pentaazabenzo[4,5]cycloocta[1,2,3-cd]inden-3-one]
[1]; day 8, vehicle 10.10±0.18
  pathological score (H&E, colon): 8.30±0.54
[1]; vehicle 50.88±2.53
  colon density (colon weight/colon length): 41.86±2.57
Hbb-bh1 mRNA; 3 mg/kg po qd×5 days
  Hbb-bh1 mRNA level, of the vehicle control group: 82.2%
Hbb-bh1 mRNA; 10 mg/kg po qd×5 days
  Hbb-bh1 mRNA level, of the vehicle control group: 114.6%
Hbb-bh1 mRNA; 30 mg/kg po qd×5 days
  Hbb-bh1 mRNA level, of the vehicle control group: 178.3%
Hbb-bh1 mRNA; 90 mg/kg po qd×5 days, p<0.05 vs vehicle
  Hbb-bh1 mRNA, fold of increase: 3.04 fold
[2]; 0.01 μM
  HBG mRNA level, folds of the vehicle group: 1.09 folds
[2]; 0.03 μM
  HBG mRNA level, folds of the vehicle group: 2.49 folds
[2]; 0.1 μM
  HBG mRNA level, folds of the vehicle group: 7.84 folds
[2]; 0.3 μM
  HBG mRNA level, folds of the vehicle group: 9.69 folds
[2]; 1.0 μM, maximal effect, p<0.0001 vs vehicle
  HBG mRNA level, folds of the vehicle group: 12.2 folds
HbF in human CD34+ HSC; 0.01 μM
  cellular HbF concentration, folds of the vehicle group: 1.27 folds
HbF in human CD34+ HSC; 0.03 μM
  cellular HbF concentration, folds of the vehicle group: 1.39 folds
HbF in human CD34+ HSC; 0.1 μM
  cellular HbF concentration, folds of the vehicle group: 1.52 folds
HbF in human CD34+ HSC; 0.3 μM
  cellular HbF concentration, folds of the vehicle group: 1.58 folds
HbF in human CD34+ HSC; 1.0 μM, maximal effect, p<0.01
  cellular HbF concentration, folds of the vehicle group: 1.69 folds
